Holding throughout (assay type): biochemical
Experiment [1] has as its target T1, 320 wild-type protein kinases (Homo sapiens, UniProt P52333).
T1 sequence (P52333 1-1124): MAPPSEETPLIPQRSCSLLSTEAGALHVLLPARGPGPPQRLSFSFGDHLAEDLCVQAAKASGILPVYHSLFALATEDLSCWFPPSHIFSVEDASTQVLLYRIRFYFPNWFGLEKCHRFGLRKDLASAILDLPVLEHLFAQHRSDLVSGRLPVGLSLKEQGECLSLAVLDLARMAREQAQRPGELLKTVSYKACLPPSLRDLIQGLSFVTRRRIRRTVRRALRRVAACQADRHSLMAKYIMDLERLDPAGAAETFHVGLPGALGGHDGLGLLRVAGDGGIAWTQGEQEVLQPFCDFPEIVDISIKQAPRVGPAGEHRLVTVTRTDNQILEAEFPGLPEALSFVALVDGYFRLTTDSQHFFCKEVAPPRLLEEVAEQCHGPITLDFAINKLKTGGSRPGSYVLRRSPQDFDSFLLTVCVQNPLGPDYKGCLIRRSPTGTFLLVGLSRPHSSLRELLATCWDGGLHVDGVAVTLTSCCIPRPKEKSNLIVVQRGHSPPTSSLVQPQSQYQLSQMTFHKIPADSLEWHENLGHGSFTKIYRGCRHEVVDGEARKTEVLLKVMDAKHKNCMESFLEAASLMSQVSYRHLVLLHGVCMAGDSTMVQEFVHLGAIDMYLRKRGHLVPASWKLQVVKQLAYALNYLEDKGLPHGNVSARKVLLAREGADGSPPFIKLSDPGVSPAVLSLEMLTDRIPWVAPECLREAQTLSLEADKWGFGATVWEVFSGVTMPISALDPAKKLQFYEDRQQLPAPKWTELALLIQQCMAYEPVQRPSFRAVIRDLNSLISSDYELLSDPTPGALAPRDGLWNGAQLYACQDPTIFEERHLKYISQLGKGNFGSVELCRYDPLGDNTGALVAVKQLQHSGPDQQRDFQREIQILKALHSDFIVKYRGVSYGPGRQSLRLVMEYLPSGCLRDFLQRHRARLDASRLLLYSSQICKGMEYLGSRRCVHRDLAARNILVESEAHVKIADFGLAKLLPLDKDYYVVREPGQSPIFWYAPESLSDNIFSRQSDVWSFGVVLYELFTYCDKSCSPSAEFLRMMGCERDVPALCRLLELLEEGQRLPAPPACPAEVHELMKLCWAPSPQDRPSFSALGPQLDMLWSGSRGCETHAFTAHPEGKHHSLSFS
As to conditions: singlicate. From the text:
(§1) Table S4. Profiling of two compounds at two concentrations against 320 wild-type protein kinases; singlicate measurement; Residual activities (% of control).

Experiment [2] deals with T2, 320 wild-type protein kinases (Homo sapiens, UniProt Q14164).
T2 sequence (Q14164 1-716): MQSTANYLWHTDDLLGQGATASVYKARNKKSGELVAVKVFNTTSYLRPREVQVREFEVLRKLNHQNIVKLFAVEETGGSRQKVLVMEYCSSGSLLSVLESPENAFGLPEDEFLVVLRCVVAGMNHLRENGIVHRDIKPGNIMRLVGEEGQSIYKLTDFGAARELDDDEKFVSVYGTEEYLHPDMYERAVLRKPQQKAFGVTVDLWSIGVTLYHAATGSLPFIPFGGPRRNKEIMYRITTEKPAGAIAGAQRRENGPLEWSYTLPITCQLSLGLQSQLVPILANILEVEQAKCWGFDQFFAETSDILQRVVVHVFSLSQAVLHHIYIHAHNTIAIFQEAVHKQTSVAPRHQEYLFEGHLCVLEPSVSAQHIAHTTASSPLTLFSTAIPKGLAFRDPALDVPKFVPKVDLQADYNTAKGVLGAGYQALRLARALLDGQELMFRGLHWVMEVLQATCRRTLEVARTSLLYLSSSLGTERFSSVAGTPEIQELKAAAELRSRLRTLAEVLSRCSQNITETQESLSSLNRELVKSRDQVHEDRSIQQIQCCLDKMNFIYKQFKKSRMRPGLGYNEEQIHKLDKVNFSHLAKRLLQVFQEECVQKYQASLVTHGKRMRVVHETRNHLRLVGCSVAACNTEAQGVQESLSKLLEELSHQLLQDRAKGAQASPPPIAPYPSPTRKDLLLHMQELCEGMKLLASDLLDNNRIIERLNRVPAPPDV
The note with it: IKK-epsilon, singlicate.
Text: as §1

Experiment [3] has as its target 320 wild-type protein kinases (Homo sapiens, UniProt Q15418). As to conditions: kinase RPS6KA1, singlicate.
Text: as §1

The target of experiment [4] is T3, 320 wild-type protein kinases (Homo sapiens, UniProt Q8TF76).
T3 sequence (Q8TF76 1-798): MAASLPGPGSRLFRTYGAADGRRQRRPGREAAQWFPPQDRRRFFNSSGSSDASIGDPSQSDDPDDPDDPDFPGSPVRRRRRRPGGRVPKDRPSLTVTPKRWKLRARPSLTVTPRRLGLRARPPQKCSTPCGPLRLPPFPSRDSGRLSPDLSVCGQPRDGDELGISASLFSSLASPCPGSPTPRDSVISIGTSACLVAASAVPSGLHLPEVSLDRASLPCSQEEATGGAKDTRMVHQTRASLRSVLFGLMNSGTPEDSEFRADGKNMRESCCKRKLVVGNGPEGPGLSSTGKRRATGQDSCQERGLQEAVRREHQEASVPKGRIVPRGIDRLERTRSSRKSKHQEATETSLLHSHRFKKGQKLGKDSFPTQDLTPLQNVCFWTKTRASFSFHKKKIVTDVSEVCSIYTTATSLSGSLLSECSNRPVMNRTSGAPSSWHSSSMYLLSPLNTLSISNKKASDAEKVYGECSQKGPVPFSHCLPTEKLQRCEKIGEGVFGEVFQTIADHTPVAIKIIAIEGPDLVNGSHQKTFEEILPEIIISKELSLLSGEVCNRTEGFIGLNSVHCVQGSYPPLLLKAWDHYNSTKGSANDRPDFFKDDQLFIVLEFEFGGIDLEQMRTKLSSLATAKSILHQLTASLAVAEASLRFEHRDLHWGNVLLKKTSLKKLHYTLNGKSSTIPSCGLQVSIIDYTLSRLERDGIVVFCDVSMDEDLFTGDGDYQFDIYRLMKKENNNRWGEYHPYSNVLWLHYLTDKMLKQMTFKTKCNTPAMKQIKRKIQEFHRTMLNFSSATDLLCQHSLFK
The note with it: singlicate.
Text: as §1

Data on two compounds can be found in PMC9329436, “Optimization of the 4-anilinoquin(az)oline scaffold as epidermal growth factor receptor (EGFR) inhibitors for chordoma utilizing a toxicology profiling assay platform” (Scientific Reports, 2022).

Like-named read-outs stand apart in the source and are kept apart here.

320 wild-type protein kinases (Homo sapiens, UniProt Q15418), sequence (Q15418 whole entry): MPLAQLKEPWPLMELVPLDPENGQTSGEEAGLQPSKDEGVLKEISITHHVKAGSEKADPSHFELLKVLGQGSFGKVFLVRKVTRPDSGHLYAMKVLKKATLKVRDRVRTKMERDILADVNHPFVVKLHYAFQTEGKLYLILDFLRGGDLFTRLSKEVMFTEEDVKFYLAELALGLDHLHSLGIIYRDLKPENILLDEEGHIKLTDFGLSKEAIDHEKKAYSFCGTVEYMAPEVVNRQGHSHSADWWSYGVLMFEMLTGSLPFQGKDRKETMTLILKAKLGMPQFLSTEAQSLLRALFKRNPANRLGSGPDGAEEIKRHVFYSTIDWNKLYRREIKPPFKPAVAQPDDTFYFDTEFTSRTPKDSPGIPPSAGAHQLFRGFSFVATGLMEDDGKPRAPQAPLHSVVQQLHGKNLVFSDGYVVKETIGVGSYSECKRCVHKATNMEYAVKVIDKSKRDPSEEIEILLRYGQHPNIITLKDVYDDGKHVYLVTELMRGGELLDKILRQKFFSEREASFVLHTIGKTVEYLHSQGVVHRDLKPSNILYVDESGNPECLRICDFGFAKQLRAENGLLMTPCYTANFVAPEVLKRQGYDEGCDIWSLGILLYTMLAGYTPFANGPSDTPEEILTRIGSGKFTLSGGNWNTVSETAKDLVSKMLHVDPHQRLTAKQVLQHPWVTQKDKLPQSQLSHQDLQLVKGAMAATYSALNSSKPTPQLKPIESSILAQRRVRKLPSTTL

For the compound `C#Cc1cc(Nc2ncnc3cc(OC)c(OC)cc23)ccc1Cl` [Compound 45], the Residual activity in experiment [1] (JAK3, 1.0E-06 M) is listed as 85 % of control; in experiment [1] (JAK3, 1.0E-07 M), 112 % of control; in experiment [2] (1.0E-06 M) it was 101 % of control; in experiment [2] (1.0E-07 M) it was 108 % of control; in experiment [4] (GSG2, 1.0E-06 M), 109 % of control; in experiment [4] (GSG2, 1.0E-07 M), 115 % of control. The “Residual activity, RPS6KA1” value in experiment [3] (assay conc. 1.0E-06 M) was 74 % of control; in experiment [3] (assay conc. 1.0E-07 M) it was 88 % of control.

With `C#Cc1cc(Nc2ncnc3cc(I)ccc23)ccc1Cl` [Compound 41], the Residual activity in experiment [1] (JAK3, 1.0E-06 M) is 78 % of control; in experiment [1] (JAK3, 1.0E-07 M), 108 % of control; in experiment [2] (1.0E-06 M) it was 94 % of control; in experiment [2] (1.0E-07 M), 108 % of control; in experiment [4] (GSG2, 1.0E-06 M), 112 % of control; in experiment [4] (GSG2, 1.0E-07 M), 113 % of control. The “Residual activity, RPS6KA1” value in experiment [3] (assay conc. 1.0E-06 M) is given as 99 % of control; in experiment [3] (assay conc. 1.0E-07 M) it was 103 % of control.
